The structures appear in SMILES notation.

The subject of one assay is mu opiate receptor (MOR). Nature of the assay: MOR agonist activity using [35S]GTPγS binding assay in striatal membranes. It is filed as biochemical. The following applies: 0.1 μM compound. In short, it runs like this: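 Striatal membranes (200 μg) were preincubated 5 min at 30 °C in HEPES pH 7.5 with 100 mM NaCl, 1 mM MgCl2 and 0.5 nM [35S]GTPγS, then 5 min more with 0.1–10 μM compound. Gαo was immunoprecipitated and bound radioactivity counted by scintillation.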
Consider `CC1CCC(C(C)C)C(OCC(O)CN2CCN(CCCN3CCOCC3)CC2)C1` (stereo not drawn) [Compound A0026], for which the “MOR agonist activity ([35S]GTPγS binding), FLNA-Binding Compound as Agonist 0.1 μM” value (“MOR agonist activity … as Agonist 0.1 μM” for short) was 140.7%.

For the compound `CC1CN(CC(O)COc2cc(F)cc(F)c2)CC(C)O1` (stereo not drawn) [Compound A0046], the “MOR agonist activity … as Agonist 0.1 μM” value is listed as 257.5%.

As for `CN(C)c1cccc(OCC(O)CN2CCc3ccccc3C2)c1` (stereo not drawn) [Compound A0050], the “MOR agonist activity … as Agonist 0.1 μM” value came to 151.0%.

The same assay, now with this note: 0.1 μM compound relative to DAMGO.
As to `CC1CCC(C(C)C)C(OCC(O)CN2CCN(CCCN3CCOCC3)CC2)C1` (stereo not drawn) [Compound A0026], the “% DAMGO (0.1 μM)” value worked out at 79.7%.

Turning to `CC1CN(CC(O)COc2cc(F)cc(F)c2)CC(C)O1` (stereo not drawn) [Compound A0046], the “% DAMGO (0.1 μM)” value is 131.2%.

As for `CN(C)c1cccc(OCC(O)CN2CCc3ccccc3C2)c1` (stereo not drawn) [Compound A0050], the “% DAMGO (0.1 μM)” value amounted to 77.0%.

The same assay, now with this note: 1 μM compound.
Consider `CC1CCC(C(C)C)C(OCC(O)CN2CCN(CCCN3CCOCC3)CC2)C1` (stereo not drawn) [Compound A0026], for which the “MOR agonist activity ([35S]GTPγS binding), FLNA-Binding Compound as Agonist 1 μM” value is 179.8%.

With `CC1CN(CC(O)COc2cc(F)cc(F)c2)CC(C)O1` (stereo not drawn) [Compound A0046], the “MOR agonist activity ([35S]GTPγS binding), FLNA-Binding Compound as Agonist 1 μM” value turned out to be 354.1%.

On to `CN(C)c1cccc(OCC(O)CN2CCc3ccccc3C2)c1` (stereo not drawn) [Compound A0050], for which the “MOR agonist activity ([35S]GTPγS binding), FLNA-Binding Compound as Agonist 1 μM” value is given as 189.3%.

The assay is the same for the next values; noted with them: 1 μM compound + 1 μM β-funaltrexamine.
On to `CC1CCC(C(C)C)C(OCC(O)CN2CCN(CCCN3CCOCC3)CC2)C1` (stereo not drawn) [Compound A0026], for which the “MOR agonist activity ([35S]GTPγS binding), FLNA-Binding Compound as Agonist 1 μM + BFNA” value (“MOR agonist activity … as Agonist 1 μM + BFNA” for short) worked out at 120.8%.

Regarding `CC1CN(CC(O)COc2cc(F)cc(F)c2)CC(C)O1` (stereo not drawn) [Compound A0046], the “MOR agonist activity … as Agonist 1 μM + BFNA” value is reported as 140.0%.

For `CN(C)c1cccc(OCC(O)CN2CCc3ccccc3C2)c1` (stereo not drawn) [Compound A0050], the “MOR agonist activity … as Agonist 1 μM + BFNA” value turned out to be 81.0%.

The assay is the same for the next values; noted with them: 1 μM compound + BFNA relative to DAMGO + BFNA.
In the case of `CC1CCC(C(C)C)C(OCC(O)CN2CCN(CCCN3CCOCC3)CC2)C1` (stereo not drawn) [Compound A0026], the “% DAMGO + BFNA” value came to 459.3%.

Consider `CC1CN(CC(O)COc2cc(F)cc(F)c2)CC(C)O1` (stereo not drawn) [Compound A0046], for which the “% DAMGO + BFNA” value turned out to be 189.4%.

Regarding `CN(C)c1cccc(OCC(O)CN2CCc3ccccc3C2)c1` (stereo not drawn) [Compound A0050], the “% DAMGO + BFNA” value came out at 109.6%.

The assay is the same for the next values; noted with them: 1 μM compound relative to DAMGO.
Regarding `CC1CCC(C(C)C)C(OCC(O)CN2CCN(CCCN3CCOCC3)CC2)C1` (stereo not drawn) [Compound A0026], the “% DAMGO (1 μM)” value turned out to be 70.7%.

In the case of `CC1CN(CC(O)COc2cc(F)cc(F)c2)CC(C)O1` (stereo not drawn) [Compound A0046], the “% DAMGO (1 μM)” value is recorded as 128.3%.

Regarding `CN(C)c1cccc(OCC(O)CN2CCc3ccccc3C2)c1` (stereo not drawn) [Compound A0050], the “% DAMGO (1 μM)” value is reported as 68.6%.

Still in this assay, the particulars now being: Series B; 0.1 μM compound, relative to DAMGO.
As to `COc1c2c(cc3c1C(CC(=O)/C=C/c1ccc(Cl)cc1)[N+](C)(C)CC3)OCO2` (stereo not drawn) [Compound B0019], the “% DAMGO (0.1 μM)” value was 59.7%.

`COc1c2c(cc3c1C(CC(=O)CCc1ccccc1)N(C)CC3)OCO2` (stereo not drawn) [Compound B0050]: the “% DAMGO (0.1 μM)” value was 58.1%.

For `COc1ccc(C(=O)CC2c3c(cc4c(c3OC)OCO4)CC[N+]2(C)C)cc1OC` (stereo not drawn) [Compound B0026], the “% DAMGO (0.1 μM)” value is given as 88.8%.

Staying with this assay, now noted: Series B; 0.1 μM compound; [35S]GTPγS binding to Gαo, striatal membranes.
Take `COc1c2c(cc3c1C(CC(=O)/C=C/c1ccc(Cl)cc1)[N+](C)(C)CC3)OCO2` (stereo not drawn) [Compound B0019]: the “MOR agonist activity, percent [35S]GTPγS binding at the stated compound concentration” value (from here on “MOR agonist activity, percent”) amounted to 101.0%.

Turning to `COc1c2c(cc3c1C(CC(=O)CCc1ccccc1)N(C)CC3)OCO2` (stereo not drawn) [Compound B0050], the “MOR agonist activity, percent” value amounted to 98.2%.

Regarding `COc1ccc(C(=O)CC2c3c(cc4c(c3OC)OCO4)CC[N+]2(C)C)cc1OC` (stereo not drawn) [Compound B0026], the “MOR agonist activity, percent” value is reported as 152.0%.

The assay is the same for the next values; noted with them: Series B; 1 μM compound + 1 μM β-FNA.
For `COc1c2c(cc3c1C(CC(=O)/C=C/c1ccc(Cl)cc1)[N+](C)(C)CC3)OCO2` (stereo not drawn) [Compound B0019], the “MOR agonist activity, percent” value was 81.4%.

As to `COc1c2c(cc3c1C(CC(=O)CCc1ccccc1)N(C)CC3)OCO2` (stereo not drawn) [Compound B0050], the “MOR agonist activity, percent” value turned out to be 48.8%.

On to `COc1ccc(C(=O)CC2c3c(cc4c(c3OC)OCO4)CC[N+]2(C)C)cc1OC` (stereo not drawn) [Compound B0026], for which the “MOR agonist activity, percent” value was 28.8%.

Staying with this assay, now noted: Series B; 1 μM compound + β-FNA, relative to DAMGO + BFNA.
As to `COc1c2c(cc3c1C(CC(=O)/C=C/c1ccc(Cl)cc1)[N+](C)(C)CC3)OCO2` (stereo not drawn) [Compound B0019], the “% DAMGO + BFNA” value came to 123.3%.

For `COc1c2c(cc3c1C(CC(=O)CCc1ccccc1)N(C)CC3)OCO2` (stereo not drawn) [Compound B0050], the “% DAMGO + BFNA” value worked out at 294.0%.

As for `COc1ccc(C(=O)CC2c3c(cc4c(c3OC)OCO4)CC[N+]2(C)C)cc1OC` (stereo not drawn) [Compound B0026], the “% DAMGO + BFNA” value is 55.3%.

Still in this assay, the particulars now being: Series B; 1 μM compound, relative to DAMGO.
Consider `COc1c2c(cc3c1C(CC(=O)/C=C/c1ccc(Cl)cc1)[N+](C)(C)CC3)OCO2` (stereo not drawn) [Compound B0019], for which the “% DAMGO (1 μM)” value came out at 96.0%.

In the case of `COc1c2c(cc3c1C(CC(=O)CCc1ccccc1)N(C)CC3)OCO2` (stereo not drawn) [Compound B0050], the “% DAMGO (1 μM)” value is 96.4%.

With `COc1ccc(C(=O)CC2c3c(cc4c(c3OC)OCO4)CC[N+]2(C)C)cc1OC` (stereo not drawn) [Compound B0026], the “% DAMGO (1 μM)” value was 87.4%.

Still in this assay, the particulars now being: Series B; 1 μM compound; [35S]GTPγS binding to Gαo, striatal membranes.
With `COc1c2c(cc3c1C(CC(=O)/C=C/c1ccc(Cl)cc1)[N+](C)(C)CC3)OCO2` (stereo not drawn) [Compound B0019], the “MOR agonist activity, percent” value is 256.5%.

Turning to `COc1c2c(cc3c1C(CC(=O)CCc1ccccc1)N(C)CC3)OCO2` (stereo not drawn) [Compound B0050], the “MOR agonist activity, percent” value was found to be 211.0%.

Regarding `COc1ccc(C(=O)CC2c3c(cc4c(c3OC)OCO4)CC[N+]2(C)C)cc1OC` (stereo not drawn) [Compound B0026], the “MOR agonist activity, percent” value stood at 233.3%.

The target of another assay is FLNA pentapeptide of SEQ ID NO: 1 (Bn-VAKGL) (Homo sapiens, UniProt P21333). Description: FITC-NLX-based FLNA screening assay (inhibition of FITC-naloxone binding to Bn-VAKGL on streptavidin plates). The following applies: FLNA-binding compound 0.01 μM; 10 nM FITC-NLX; read-out: Percent Binding Inhibition.
By inhibition is commonly meant the percentage by which the read-out fell short of the control. Turning to `COc1c2c(cc3c1C(CC(=O)CCc1ccccc1)N(C)CC3)OCO2` (stereo not drawn) [Compound B0050], the inhibition at 0.01 µM is 29.2%.

For the compound `CC1CCC(C(C)C)C(OCC(O)CN2CCN(CCCN3CCOCC3)CC2)C1` (stereo not drawn) [Compound A0026], the inhibition at 0.01 µM is 36.4%.

Consider `CC1CN(CC(O)COc2cc(F)cc(F)c2)CC(C)O1` (stereo not drawn) [Compound A0046], for which the inhibition at 0.01 µM amounted to 34.3%.

`CN(C)c1cccc(OCC(O)CN2CCc3ccccc3C2)c1` (stereo not drawn) [Compound A0050]: the inhibition at 0.01 µM was found to be 42.9%.

Still in this assay, the particulars now being: FLNA-binding compound 0.1 μM; 10 nM FITC-NLX; read-out: Percent Binding Inhibition.
`COc1c2c(cc3c1C(CC(=O)CCc1ccccc1)N(C)CC3)OCO2` (stereo not drawn) [Compound B0050]: the inhibition at 0.1 µM was found to be 34.5%.

Turning to `CC1CCC(C(C)C)C(OCC(O)CN2CCN(CCCN3CCOCC3)CC2)C1` (stereo not drawn) [Compound A0026], the inhibition at 0.1 µM was determined as 42.4%.

As for `CC1CN(CC(O)COc2cc(F)cc(F)c2)CC(C)O1` (stereo not drawn) [Compound A0046], the inhibition at 0.1 µM was 38.4%.

`CN(C)c1cccc(OCC(O)CN2CCc3ccccc3C2)c1` (stereo not drawn) [Compound A0050]: the inhibition at 0.1 µM came out at 49.8%.

Still in this assay, the particulars now being: FLNA-binding compound 1 μM; 10 nM FITC-NLX; read-out: Percent Binding Inhibition.
Regarding `COc1c2c(cc3c1C(CC(=O)CCc1ccccc1)N(C)CC3)OCO2` (stereo not drawn) [Compound B0050], the inhibition at 1 µM was determined as 39.8%.

Regarding `CC1CCC(C(C)C)C(OCC(O)CN2CCN(CCCN3CCOCC3)CC2)C1` (stereo not drawn) [Compound A0026], the inhibition at 1 µM turned out to be 49.2%.

Take `CC1CN(CC(O)COc2cc(F)cc(F)c2)CC(C)O1` (stereo not drawn) [Compound A0046]: the inhibition at 1 µM was 40.9%.

Turning to `CN(C)c1cccc(OCC(O)CN2CCc3ccccc3C2)c1` (stereo not drawn) [Compound A0050], the inhibition at 1 µM stood at 52.1%.

Staying with this assay, now noted: read-out: Percent Binding Inhibition, FLNA-binding compound 0.01 μM; 10 nM FITC-NLX.
Regarding `COc1c2c(cc3c1C(CC(=O)/C=C/c1ccc(Cl)cc1)[N+](C)(C)CC3)OCO2` (stereo not drawn) [Compound B0019], the inhibition at 0.01 µM was determined as 34.3%.

As for `COc1ccc(C(=O)CC2c3c(cc4c(c3OC)OCO4)CC[N+]2(C)C)cc1OC` (stereo not drawn) [Compound B0026], the inhibition at 0.01 µM worked out at 41.1%.

Staying with this assay, now noted: read-out: Percent Binding Inhibition, FLNA-binding compound 0.1 μM; 10 nM FITC-NLX.
With `COc1c2c(cc3c1C(CC(=O)/C=C/c1ccc(Cl)cc1)[N+](C)(C)CC3)OCO2` (stereo not drawn) [Compound B0019], the inhibition at 0.1 µM is 41%.

For `COc1ccc(C(=O)CC2c3c(cc4c(c3OC)OCO4)CC[N+]2(C)C)cc1OC` (stereo not drawn) [Compound B0026], the inhibition at 0.1 µM turned out to be 43.3%.

Staying with this assay, now noted: read-out: Percent Binding Inhibition, FLNA-binding compound 1 μM; 10 nM FITC-NLX.
Regarding `COc1c2c(cc3c1C(CC(=O)/C=C/c1ccc(Cl)cc1)[N+](C)(C)CC3)OCO2` (stereo not drawn) [Compound B0019], the inhibition at 1 µM was found to be 49%.

On to `COc1ccc(C(=O)CC2c3c(cc4c(c3OC)OCO4)CC[N+]2(C)C)cc1OC` (stereo not drawn) [Compound B0026], for which the inhibition at 1 µM worked out at 48.2%.

The record behind these values is patent publication US10363239B2, “Method for inhibiting growth of cancer cells” (Pain Therapeutics, Inc., priority 2013, dated 2019).
